Like-named read-outs stand apart in the source and are kept apart here.
Target: T1, GLUT1 (Homo sapiens, UniProt P11166)
T1 sequence (P11166 1-492): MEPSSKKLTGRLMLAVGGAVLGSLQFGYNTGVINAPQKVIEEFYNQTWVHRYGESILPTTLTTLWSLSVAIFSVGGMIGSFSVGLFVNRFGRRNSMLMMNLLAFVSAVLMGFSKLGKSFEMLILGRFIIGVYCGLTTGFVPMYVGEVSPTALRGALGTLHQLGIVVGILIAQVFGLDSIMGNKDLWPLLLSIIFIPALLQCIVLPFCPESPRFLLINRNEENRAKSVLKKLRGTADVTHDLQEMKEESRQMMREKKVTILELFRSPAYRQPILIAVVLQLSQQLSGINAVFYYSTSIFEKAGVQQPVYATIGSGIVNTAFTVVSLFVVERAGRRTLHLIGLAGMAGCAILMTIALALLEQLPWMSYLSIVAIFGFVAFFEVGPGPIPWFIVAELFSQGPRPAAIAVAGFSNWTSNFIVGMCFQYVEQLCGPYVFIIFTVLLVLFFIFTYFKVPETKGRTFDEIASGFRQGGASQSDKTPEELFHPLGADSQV
Test: Indirect measurement of GLUT1 activity by quantification of intracellular ATP levels (glucose induced ATP increase)
Format: cell-based
Design: endogenous in cells; host or cells: DLD1 or CHO-K1
Details: read-out: IC50 regarding glucose induced ATP increase (GLUT1 inhibition)
Summary of the method: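 Intracellular ATP was measured by CellTiter-Glo luminescence as an indirect readout of transport: glucose-driven for GLUT1, fructose-driven for GLUT2. DLD1 or CHO-K1 cells were used alongside an oxidative phosphorylation inhibitor. Beforehand, cells were held overnight in glucose-free 1% FCS medium to deplete ATP.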

[1] = DLD1 cells, 0.1 mM glucose, 1 μM Rotenone, 15 min, CellTiter-Glo ATP readout, IC50 values standardized to cytochalasin B IC50 values

Structure (SMILES)	IC50 [nM]	IC50 [1] [nM]
Cc1nn(Cc2ccc(C#N)cc2)c(C)c1NC(=O)c1cc(C(N)=O)nc2ccc(F)cc12 [Example 228, N^4-[1-(4-cyanobenzyl)-3,5-dimethyl-1H-pyrazol-4-yl]-6-fluoroquinoline-2,4-dicarboxamide]	4.6	
Cc1nn(Cc2ccc(F)cc2)c(C)c1NC(=O)c1cc(C(N)=O)nc2ccc(F)cc12 [Example 229, 6-fluoro-N^4-[1-(4-fluorobenzyl)-3,5-dimethyl-1H-pyrazol-4-yl]quinoline-2,4-dicarboxamide]	4.6	
Cc1nn(Cc2ccc(C#N)cc2)c(C)c1NC(=O)c1cc(C(N)=O)nc2cc(F)c(F)cc12 [Example 230, N^4-[1-(4-cyanobenzyl)-3,5-dimethyl-1H-pyrazol-4-yl]-6,7-difluoroquinoline-2,4-dicarboxamide]	5	
Cc1nn(Cc2ccc(S(C)(=O)=O)cc2)c(C)c1NC(=O)c1cc(C(N)=O)nc2cc(F)c(F)cc12 [Example 231, N^4-{3,5-dimethyl-1-[4-(methylsulfonyl)benzyl]-1H-pyrazol-4-yl}-6,7-difluoroquinoline-2,4-dicarboxamide]	5.8	
Cc1nn(Cc2ccccc2C#N)c(C)c1NC(=O)c1cc(C(N)=O)nc2ccccc12 [Example 232, N^4-[1-(2-cyanobenzyl)-3,5-dimethyl-1H-pyrazol-4-yl]quinoline-2,4-dicarboxamide]	7	
COc1ccc2nc(C3CC3)cc(C(=O)Nc3c(C)nn(Cc4ccc(F)cc4)c3C)c2c1 [Example 233, 2-cyclopropyl-N-[1-(4-fluorobenzyl)-3,5-dimethyl-1H-pyrazol-4-yl]-6-methoxyquinoline-4-carboxamide]	7.2	
Cc1nn(Cc2ncccc2C#N)c(C)c1NC(=O)c1cc(C(F)(F)F)nc2ccc(Br)cc12 [Example 234, 6-bromo-N-{1-[(3-cyanopyridin-2-yl)methyl]-3,5-dimethyl-1H-pyrazol-4-yl}-2-(trifluoromethyl)quinoline-4-carboxamide]	9.2	
Cc1nn(Cc2ccccc2C#N)c(C)c1NC(=O)c1cc(C(N)=O)nc2cc(F)c(F)cc12 [Example 235, N^4-[1-(2-cyanobenzyl)-3,5-dimethyl-1H-pyrazol-4-yl]-6,7-difluoroquinoline-2,4-dicarboxamide]	10.9	
COc1ccc(Cn2nc(C)c(NC(=O)c3cc(C(N)=O)nc4cc(F)c(F)cc34)c2C)cc1F [Example 236, 6,7-difluoro-N^4-[1-(3-fluoro-4-methoxybenzyl)-3,5-dimethyl-1H-pyrazol-4-yl]quinoline-2,4-dicarboxamide]	0.4	
COc1ccc(Cn2nc(C)c(NC(=O)c3cc(C(N)=O)nc4cc(F)c(Cl)cc34)c2C)cc1F [Example 237, 6-chloro-7-fluoro-N^4-[1-(3-fluoro-4-methoxybenzyl)-3,5-dimethyl-1H-pyrazol-4-yl]quinoline-2,4-dicarboxamide]	0.4	
COc1ccc(Cn2nc(C)c(NC(=O)c3cc(C(N)=O)nc4ccccc34)c2C)cc1F [Example 238, N^4-[1-(3-fluoro-4-methoxybenzyl)-3,5-dimethyl-1H-pyrazol-4-yl]quinoline-2,4-dicarboxamide]	1.1	
COc1cc(C(=O)Nc2c(C)nn(Cc3ccc(OC)c(F)c3)c2C)c2ccccc2n1 [Example 239, N-[1-(3-fluoro-4-methoxybenzyl)-3,5-dimethyl-1H-pyrazol-4-yl]-2-methoxyquinoline-4-carboxamide]	2.9	
Cc1c(NC(=O)c2cc(C(N)=O)nc3c(F)cc(Cl)cc23)c(C(F)(F)F)nn1Cc1ccc(C#N)cc1 [Example 241, 6-chloro-N^4-[1-(4-cyanobenzyl)-5-methyl-3-(trifluoromethyl)-1H-pyrazol-4-yl]-8-fluoroquinoline-2,4-dicarboxamide]	1.1	
COc1cc2c(C(=O)Nc3c(C(F)(F)F)nn(Cc4ccc(C#N)cc4)c3C)cc(C(N)=O)nc2cc1F [Example 242, N^4-[1-(4-cyanobenzyl)-5-methyl-3-(trifluoromethyl)-1H-pyrazol-4-yl]-7-fluoro-6-methoxyquinoline-2,4-dicarboxamide]	1	
Cc1c(NC(=O)c2cc(C(N)=O)nc3cc(F)cc(F)c23)c(C(F)(F)F)nn1Cc1ccc(C#N)cc1 [Example 243, N^4-[1-(4-cyanobenzyl)-5-methyl-3-(trifluoromethyl)-1H-pyrazol-4-yl]-5,7-difluoroquinoline-2,4-dicarboxamide]		0.5
Cc1cccc2nc(C(N)=O)cc(C(=O)Nc3c(C(F)(F)F)nn(Cc4ccc(C#N)cc4)c3C)c12 [Example 244, N^4-[1-(4-cyanobenzyl)-5-methyl-3-(trifluoromethyl)-1H-pyrazol-4-yl]-5-methylquinoline-2,4-dicarboxamide]	17.6	

Structure (SMILES)	IC50 [nM]	IC50 [1] [nM]
COc1ccc2nc(C(N)=O)cc(C(=O)Nc3c(C(F)(F)F)nn(Cc4ccc(C#N)cc4)c3C)c2c1 [Example 245, N^4-[1-(4-cyanobenzyl)-5-methyl-3-(trifluoromethyl)-1H-pyrazol-4-yl]-6-methoxyquinoline-2,4-dicarboxamide]		0.3
Cc1c(NC(=O)c2cc(C(N)=O)nc3cc(Cl)ccc23)c(C(F)(F)F)nn1Cc1ccc(C#N)cc1 [Example 246, 7-chloro-N^4-[1-(4-cyanobenzyl)-5-methyl-3-(trifluoromethyl)-1H-pyrazol-4-yl]quinoline-2,4-dicarboxamide]	2.6	
Cc1c(NC(=O)c2cc(C(N)=O)nc3c(F)cccc23)c(C(F)(F)F)nn1Cc1ccc(C#N)cc1 [Example 247, N^4-[1-(4-cyanobenzyl)-5-methyl-3-(trifluoromethyl)-1H-pyrazol-4-yl]-8-fluoroquinoline-2,4-dicarboxamide]	4.9	
Cc1c(NC(=O)c2cc(C(N)=O)nc3ccc(Cl)cc23)c(C(F)(F)F)nn1Cc1ccc(C#N)cc1 [Example 248, 6-chloro-N^4-[1-(4-cyanobenzyl)-5-methyl-3-(trifluoromethyl)-1H-pyrazol-4-yl]quinoline-2,4-dicarboxamide]	0.6	
Cc1c(NC(=O)c2cc(C(N)=O)nc3cccc(F)c23)c(C(F)(F)F)nn1Cc1ccc(C#N)cc1 [Example 249, N^4-[1-(4-cyanobenzyl)-5-methyl-3-(trifluoromethyl)-1H-pyrazol-4-yl]-5-fluoroquinoline-2,4-dicarboxamide]	1	
Cc1c(NC(=O)c2cc(C(N)=O)nc3ccc(Br)cc23)c(C(F)(F)F)nn1Cc1ccc(C#N)cc1 [Example 250]	3.6	
Cc1nn(Cc2ccc(C#N)cc2)c(C)c1NC(=O)c1cc(C(N)=O)nc2c(F)cc(Cl)cc12 [Example 252, 6-chloro-N^4-[1-(4-cyanobenzyl)-3,5-dimethyl-1H-pyrazol-4-yl]-8-fluoroquinoline-2,4-dicarboxamide]	1.2	
Cc1nn(Cc2ccc(C#N)cc2)c(C)c1NC(=O)c1cc(C(N)=O)nc2cc(F)cc(F)c12 [Example 253, N^4-[1-(4-cyanobenzyl)-3,5-dimethyl-1H-pyrazol-4-yl]-5,7-difluoroquinoline-2,4-dicarboxamide]	0.5	
COc1cc2c(C(=O)Nc3c(C)nn(Cc4ccc(C#N)cc4)c3C)cc(C(N)=O)nc2cc1F [Example 254, N^4-[1-(4-cyanobenzyl)-3,5-dimethyl-1H-pyrazol-4-yl]-7-fluoro-6-methoxyquinoline-2,4-dicarboxamide]	1.2	
Cc1nn(Cc2ccc(C#N)cc2)c(C)c1NC(=O)c1cc(C(N)=O)nc2c(Cl)cccc12 [Example 255, 8-chloro-N^4-[1-(4-cyanobenzyl)-3,5-dimethyl-1H-pyrazol-4-yl]quinoline-2,4-dicarboxamide]	1.4	
Cc1cc2c(C(=O)Nc3c(C)nn(Cc4ccc(C#N)cc4)c3C)cc(C(N)=O)nc2cc1F [Example 256, N^4-[1-(4-cyanobenzyl)-3,5-dimethyl-1H-pyrazol-4-yl]-7-fluoro-6-methylquinoline-2,4-dicarboxamide]	2.4	
Cc1nn(Cc2ccc(C#N)cc2)c(C)c1NC(=O)c1cc(C(N)=O)nc2cccc(C)c12 [Example 257, N^4-[1-(4-cyanobenzyl)-3,5-dimethyl-1H-pyrazol-4-yl]-5-methylquinoline-2,4-dicarboxamide]	2.4	
COc1ccc2nc(C(N)=O)cc(C(=O)Nc3c(C)nn(Cc4ccc(C#N)cc4)c3C)c2c1 [Example 258, N^4-[1-(4-cyanobenzyl)-3,5-dimethyl-1H-pyrazol-4-yl]-6-methoxyquinoline-2,4-dicarboxamide]	1	
Cc1nn(Cc2ccc(C#N)cc2)c(C)c1NC(=O)c1cc(C(N)=O)nc2ccccc12 [Example 259, N^4-[1-(4-cyanobenzyl)-3,5-dimethyl-1H-pyrazol-4-yl]quinoline-2,4-dicarboxamide]	9.7	
Cc1nn(Cc2ccc(C#N)cc2)c(C)c1NC(=O)c1cc(C(N)=O)nc2cc(Cl)ccc12 [Example 260, 7-chloro-N^4-[1-(4-cyanobenzyl)-3,5-dimethyl-1H-pyrazol-4-yl]quinoline-2,4-dicarboxamide]	4.7	
Cc1nn(Cc2ccc(C#N)cc2)c(C)c1NC(=O)c1cc(C(N)=O)nc2ccc(Cl)cc12 [Example 261, 6-chloro-N^4-[1-(4-cyanobenzyl)-3,5-dimethyl-1H-pyrazol-4-yl]quinoline-2,4-dicarboxamide]	0.5	
